The source of these data is PMC11432795, “Mutagenesis of the Peptide Inhibitor of ASIC3 Channel Introduces Binding to Thumb Domain of ASIC1a but Reduces Analgesic Activity” (Marine Drugs, 2024).

Positions of bridges follow the written chain, without caps; N, C: chain ends. Residues, ends and D or L forms follow the SMILES beside them. No end group written: not given here.

For test [1] the following is noted: cited from earlier work; for analgesic effect on thermal hypersensitivity caused by inflammation: ref [31],[32]; for analgesic effects: ref [16],[17]. The source says: Selective ligands targeting specific ASIC isoforms are invaluable for structural and functional investigations. Peptide ligands sourced from various animal venoms have emerged as such tools. […] Bot ... || The 29-amino acid peptide Ugr9a-1, isolated from the venom of the northern sea anemone Urticina grebelnyi, represents a structural class of toxins termed “boundless β-hairpin”. […] While the significant involvement of ASIC3 channels in acid-induced, chronic neuropathic and inflammatory pain has been extensively reported, the role of ASIC1a remains less clear.

The test system of test [2] is ASIC1a channel. The conditions noted are these: cited from earlier work. From the text:
Selective ligands targeting specific ASIC isoforms are invaluable for structural and functional investigations. Peptide ligands sourced from various animal venoms have emerged as such tools. […] Bot ...

The target of test [3] is rat ASIC3 channel (homomeric) (rat) (UniProt O35240).
Test [4] concerns the target T1, rat ASIC1a channel (Rattus norvegicus, UniProt P55926).
T1 construct: expressed in transfected cells; host or cells: Xenopus laevis oocytes injected with mRNA made from a pCI-rASIC1a plasmid
T1 sequence (P55926 1-526): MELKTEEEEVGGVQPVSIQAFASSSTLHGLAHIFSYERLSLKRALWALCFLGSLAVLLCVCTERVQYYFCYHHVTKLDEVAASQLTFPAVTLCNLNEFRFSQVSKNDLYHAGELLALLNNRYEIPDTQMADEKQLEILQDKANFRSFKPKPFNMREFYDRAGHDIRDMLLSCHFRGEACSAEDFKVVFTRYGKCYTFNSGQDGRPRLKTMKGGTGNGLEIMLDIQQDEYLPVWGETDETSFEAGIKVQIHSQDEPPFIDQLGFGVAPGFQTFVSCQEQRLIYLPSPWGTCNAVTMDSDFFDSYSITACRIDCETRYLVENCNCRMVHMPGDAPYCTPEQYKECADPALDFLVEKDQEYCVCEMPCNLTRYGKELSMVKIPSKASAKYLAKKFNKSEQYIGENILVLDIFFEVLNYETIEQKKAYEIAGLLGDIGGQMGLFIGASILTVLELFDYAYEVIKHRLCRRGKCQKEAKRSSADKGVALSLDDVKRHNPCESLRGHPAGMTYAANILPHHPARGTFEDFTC
Description: Two-electrode voltage clamp, rat ASIC1a in X. laevis oocytes. The format is cell-based. Conditions: pH 5.5 stimulus, mean ± S.E.M., 5 cells. As for the experimental part:
(§1) Figure 3 The effect of mutant peptides S16K and A23K on rat ASIC1a and ASIC3 channels. […] (B) Dose–response curves for the inhibitory effect of mutant peptides on ASIC1a. Each data point represents data from 5 cells. (C) Representative current traces of Ugr9-1, S16K, and A23K at a concentration of 12.5 µM on ASIC3. […] Each point represents data from 5 cells. The depicted currents were induced by a pH 5.5 stimulus following a conditioning pH of 7.4, with peptides applied for 30 s before the pH stimulus. The holding potential (Vh) was −50 mV, and the time interval between applications ranged from 1 to 2 min. Data are presented as mean ± S.E.M.
(§2) A small portion of the ovary was isolated from frogs under anesthesia induced by a 0.17% solution of procaine methanesulphonate (MS222) (Sigma), followed by treatment with collagenase (1 mg/mL) at room temperature for 2 h. Oocytes at stages IV and V, devoid of follicular membranes, were transferred to ND-96 medium (containing 96 mM NaCl, 5 mM HEPES, 2 mM KCl, 1.8 mM CaCl2, 1 mM MgCl2, pH 7.4). mRNA synthesis was performed from pcDNA3.1 vectors (Invitrogen, Carlsbad, CA, USA) containing the rat ASIC3 gene, as well as pCI vectors containing genes for rat ASIC1a, its mutant analogues, and ASIC1b. mRNA (2.5–10 ng) was then injected into the oocytes. For the ASIC1a/3 heteromeric channels, the mRNA encoding the ASIC1a and ASIC3 subunits were injected in a 1:5 ratio, respectively. Subsequently, the oocytes were incubated for 2–3 days at a temperature of 17–19 °C in ND96 medium supplemented with gentamicin and streptomycin (20 µg/mL each).
(§3) Whole-cell electrophysiological recordings of ASIC channels were conducted using a two-electrode voltage-clamp setup. Microelectrodes were filled with 3 M KCl. Recordings from oocytes were carried out at a holding potential of −50 mV, with data filtered at 10 Hz and sampled at a rate of 100 Hz using an L780M ADC (LCard, Moscow, Russia). The synchronized delivery of solutions into the chamber and recording of electrophysiological results were carried out using in-house software v.2. Activation of ASIC channels occurred through rapid pH changes in the solution, achieved by replacing the working solution in the chamber with ND96-based solutions at varying pH levels. Specifically, HEPES was substituted with 10 mM MES for pH 5.5–6.5 and MOPS for pH 6.7–7.0.
(§4) Fresh peptide solutions were meticulously prepared in ND96 buffer with a pH of 7.43 immediately before experiments, with strict control over the pH levels. Peptides were applied for 30 s at a conditioning pH of 7.43 before acid stimulation of the channel. The interval between applications was maintained at a minimum of 1.5 to 2 min.
(§5) Electrophysiological data analysis was conducted using OriginPro 2018 software (OriginLab, Northampton, MA, USA). Dose–response relationships for Ugr9a-1, S16K, and A23K peptides were fitted using a Hill function: F1(x) = A − A/(1 + (x/IC50)^nH), where F1(x) represents the amplitude of the current at concentration x of the peptide, A is the maximum amplitude of the current, IC50 is the half-maximum inhibitory concentration of the peptide, and nH is the Hill coefficient.
On the technique in general: In two-electrode clamp one electrode senses voltage and the other passes current.

Test [5] concerns the target T2, rat ASIC3 channel (Rattus norvegicus, UniProt O35240).
T2 construct: expressed in transfected cells; host or cells: Xenopus laevis oocytes injected with mRNA made from pcDNA3.1-rat ASIC3
T2 sequence (O35240 1-533): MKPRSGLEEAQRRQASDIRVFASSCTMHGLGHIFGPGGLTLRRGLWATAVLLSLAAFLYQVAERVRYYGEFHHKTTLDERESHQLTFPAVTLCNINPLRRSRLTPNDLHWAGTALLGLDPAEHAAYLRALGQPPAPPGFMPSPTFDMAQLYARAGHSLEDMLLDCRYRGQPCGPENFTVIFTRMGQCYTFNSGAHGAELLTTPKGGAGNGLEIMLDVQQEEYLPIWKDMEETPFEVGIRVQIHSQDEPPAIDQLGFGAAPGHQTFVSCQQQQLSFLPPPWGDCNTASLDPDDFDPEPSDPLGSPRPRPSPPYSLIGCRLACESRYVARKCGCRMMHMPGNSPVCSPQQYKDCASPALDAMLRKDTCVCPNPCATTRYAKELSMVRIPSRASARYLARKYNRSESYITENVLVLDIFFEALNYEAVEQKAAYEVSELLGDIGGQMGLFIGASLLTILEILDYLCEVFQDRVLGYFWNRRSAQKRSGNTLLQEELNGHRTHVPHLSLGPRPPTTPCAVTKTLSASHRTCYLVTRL
The test is described as follows: Two-electrode voltage clamp, rat ASIC3 in X. laevis oocytes. The format is cell-based. The conditions noted are these: pH 5.5 stimulus, mean ± S.E.M., 5 cells. The procedure:
as §1, §2, §3, §4, §5

For test [6], the system named is ASIC1a D355A mutant channel. Conditions: ref [23],[28]; cited from earlier work. The source says:
(§6) Electrophysiological experimentation confirmed the activity of recombinant S16K and A23K mutants against rat ASIC1a channels. […] This fact was in good agreement with molecular docking results that predicted tighter interactions of the lysine residue at position 23 with Asp355 and Glu357 residues of the channel. […] To confirm the critical role of th ...

The test system of test [7] is ASIC1a E357A mutant channel. The conditions noted are these: ref [23],[28]; cited from earlier work.
Excerpt: as §6

With `COc1cc2c(cc1O)[C@H](Cc1ccc(Oc3cc(C[C@@H]4NCCc5cc(OC)c(O)cc54)ccc3O)cc1)NCC2` [lindoldhamine], in test [1], the “analgesic effect on thermal hypersensitivity caused by inflammation” value is recorded as “substantial analgesic effects”.
As to `O=C(O)C[C@H](C(=O)O)[C@@H](OC(=O)C1=Cc2cc(O)c(O)cc2[C@@H](c2ccc(O)c(O)c2)[C@@H]1C(=O)O[C@@H](C(=O)O)[C@H](CC(=O)O)C(=O)O)C(=O)O` [sevanol], in test [1], the “analgesic effect on thermal hypersensitivity caused by inflammation” value is “substantial analgesic effects”.
As to “PcTx1 (EDCIPKWKGCVNRHGDCCEGLECWKRRRSFEVCVPKTPKT; ends and bridges not checked; cysteine pairing not given here; UniProt P60514 1-40, looked up)”, the analgesic effects result in test [1] is on record as “demonstrate analgesic effects”. For the same molecule, the “modulation of ASIC1a” value in test [2] (ref [11],[12],[13]) was “selectively modulates ASIC1a and ASIC1a-containing channels by stabilizing the desensitized state”.
Molecule “Ugr9a-1 peptide from the venom of the sea anemone Urticina grebelnyi” had an IC50 of inhibition of the pH 5.5-evoked current of rASIC3, two-electrode voltage clamp on X. laevis oocytes in test [3] of 14.2 µM.
On to `CC[C@H](C)[C@H](N)C(=O)N[C@@H](CO)C(=O)N[C@H](C(=O)N[C@@H](CC(=O)O)C(=O)N1CCC[C@H]1C(=O)N1CCC[C@H]1C(=O)N[C@H]1CSSC[C@@H]2NC(=O)[C@H](CC(N)=O)NC(=O)CNC(=O)[C@H](CCCCN)NC(=O)CNC(=O)[C@H](CC(=O)O)NC(=O)[C@H](CCCNC(=N)N)NC(=O)[C@H](Cc3c[nH]cn3)NC(=O)[C@H](Cc3ccc(O)cc3)NC(=O)[C@H](CSSC[C@@H](C(=O)NCC(=O)N[C@@H](C)C(=O)N[C@H](C(=O)O)C(C)C)NC(=O)CNC(=O)[C@H](Cc3ccc(O)cc3)NC(=O)[C@H](C)NC(=O)[C@H](CC(=O)O)NC(=O)[C@H](Cc3ccc(O)cc3)NC(=O)[C@H](C(C)C)NC2=O)NC(=O)[C@H](Cc2ccccc2)NC(=O)[C@H](CCCNC(=N)N)NC1=O)[C@@H](C)CC` [S16K] (H-ISIDPPCRFCYHRDGKGNCVYDAYGCGAV-OH; disulfide 7-19, 10-26), for which the “Hill slope (nH)” value in test [4] (inhibition of rat ASIC1a, conditioning pH 7.4) is recorded as 2.86 ± 0.09. Besides, the IC50 in test [4] (rat ASIC1a, X. laevis oocytes, TEVC, Vh −50 mV, conditioning pH 7.4, peptide 30 s before stimulus, read-out: half-maximal inhibitory concentration (IC50)) is 22.7 ± 0.42 µM; in test [5] (rat ASIC3, X. laevis oocytes, TEVC, Vh −50 mV, conditioning pH 7.4, peptide 30 s before stimulus), 35.8 ± 4.03 µM. The nH in test [5] (inhibition of rat ASIC3, conditioning pH 7.4) amounted to 2.16 ± 0.24.
Turning to “Mamb-1 (LKCYQHGKVVTCHRDMKFCYHNTGMPFRNLKLILQGCSSSCSETENNKCCSTDRCNK; ends and bridges not checked; cysteine pairing not given here; UniProt P0DKR6 22-78, looked up)”, the “effect of D355A channel mutation on inhibitory potential” value in test [6] was “did not substantially alter the inhibitory potential”. Besides, the “effect of E357A channel mutation on inhibitory potential” value in test [7] was “did not substantially alter the inhibitory potential”. Further, the analgesic effects entry in test [1] is recorded as “demonstrate analgesic effects”. Also, the “modulation of ASIC1-containing channels” value in test [2] (ref [14],[15]) was “negatively modulates ASIC1-containing channels but by stabilizing the closed state”.
